# Source: patent US9682959B2, “Ethynyl derivatives” (Hoffmann-La Roche Inc., priority 2013, dated 2017)
# Molecular target: rat mGlu 5a receptor (Rattus norvegicus (Rat), UniProt P31424)
# Assay: MPEP binding / [Ca2+]i FLIPR measurement on mGlu 5a transfected EBNA cells, antagonists tested against 10 μM glutamate
# Conditions: rat mGlu 5a receptor transiently transfected into EBNA cells; Ki calculated from IC50
# Experimental: The pharmacological activity of the compounds was tested using the following method: cDNA encoding rat mGlu 5a receptor was transiently transfected into EBNA cells using a procedure described by E.-J. Schlaeger and K. Christensen (Cytotechnology 1998, 15, 1-13). [Ca^2+]i measurements were performed on mGlu 5a transfected EBNA cells after incubation of the cells with Fluo 3-AM (obtainable by FLUKA, 0.5 μM final concentration) for 1 hour at 37° C. followed by 4 washes with assay buffer (DMEM supplemented with Hank's salt and 20 mM HEPES. [Ca^2+]i measurements were done using a fluorometric imaging plate reader (FLIPR, Molecular Devices Corporation, La Jolla, Calif., USA). When compounds were evaluated as antagonists they were tested against 10 μM glutamate as agonist.
# The inhibition (antagonists) curves were fitted with a four parameter logistic equation giving IC50, and Hill coefficient using the iterative non linear curve fitting software Origin (Microcal Software Inc., Northampton, Mass., USA).
# The Ki values of the compounds tested are given. The Ki value is defined by the following formula:
# [formula] in which the IC50 values are those concentrations of the compounds tested in μM by which 50% of the effect of compounds are antagonized. [L] is the concentration and the EC50 value is the concentration of the compounds in μM which brings about 50% stimulation.
# The compounds of the present invention are mGluR5 receptor antagonists.
# rat mGlu 5a receptor, sequence (P31424 other isoform, or with tags, fused parts or gaps): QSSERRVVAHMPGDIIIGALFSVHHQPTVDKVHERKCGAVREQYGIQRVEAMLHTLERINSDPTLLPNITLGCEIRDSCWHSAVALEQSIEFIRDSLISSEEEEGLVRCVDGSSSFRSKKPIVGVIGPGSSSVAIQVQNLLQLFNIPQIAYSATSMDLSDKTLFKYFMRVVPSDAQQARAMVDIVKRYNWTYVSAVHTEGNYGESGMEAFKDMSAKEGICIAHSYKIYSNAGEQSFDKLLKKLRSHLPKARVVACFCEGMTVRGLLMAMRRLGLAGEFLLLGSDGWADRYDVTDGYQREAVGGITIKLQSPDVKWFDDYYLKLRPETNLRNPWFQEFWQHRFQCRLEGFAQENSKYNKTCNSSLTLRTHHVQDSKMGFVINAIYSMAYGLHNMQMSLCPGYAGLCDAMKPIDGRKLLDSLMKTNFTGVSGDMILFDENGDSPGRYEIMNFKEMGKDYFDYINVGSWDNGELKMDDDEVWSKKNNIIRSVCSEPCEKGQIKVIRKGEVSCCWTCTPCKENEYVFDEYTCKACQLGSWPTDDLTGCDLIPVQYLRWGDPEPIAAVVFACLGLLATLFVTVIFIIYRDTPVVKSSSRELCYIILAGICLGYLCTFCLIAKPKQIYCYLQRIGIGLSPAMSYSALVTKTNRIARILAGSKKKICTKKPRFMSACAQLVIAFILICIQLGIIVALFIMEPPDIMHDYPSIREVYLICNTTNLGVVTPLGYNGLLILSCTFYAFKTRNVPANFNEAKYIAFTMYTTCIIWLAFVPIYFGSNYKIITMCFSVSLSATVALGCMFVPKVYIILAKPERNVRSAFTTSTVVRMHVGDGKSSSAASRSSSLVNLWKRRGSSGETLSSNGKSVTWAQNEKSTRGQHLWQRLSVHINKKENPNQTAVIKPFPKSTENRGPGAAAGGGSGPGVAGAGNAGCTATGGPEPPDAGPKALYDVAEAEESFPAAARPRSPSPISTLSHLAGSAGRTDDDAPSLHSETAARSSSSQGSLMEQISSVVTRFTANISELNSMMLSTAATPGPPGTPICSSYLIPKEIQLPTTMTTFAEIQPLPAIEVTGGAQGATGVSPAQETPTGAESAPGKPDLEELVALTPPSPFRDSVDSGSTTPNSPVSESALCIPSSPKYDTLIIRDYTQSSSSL
row,SMILES,Ki [nM]
1,"CN1C(=O)C(C)(C)N=C1c1ncc(C#Cc2cccc(F)c2)cn1 [Example 6, 2-[5-[2-(3-Fluorophenyl)ethynyl]-2-pyrimidyl]-3,5,5-trimethyl-imidazol-4-one]",280
2,"CN1C(=O)C(C)(C)N=C1c1ncc(C#Cc2ccccc2)cn1 [Example 5, 3,5,5-Trimethyl-2-[5-(2-phenylethynyl)-2-pyrimidyl]imidazol-4-one]",281
3,"CN1C(=O)C(C)(C)N=C1c1ccc(C#Cc2cccc(F)c2)cn1 [Example 1, 2-[5-[2-(3-Fluorophenyl)ethynyl]-2-pyridyl]-3,5,5-trimethyl-imidazol-4-one]",18
4,"CN1C(=O)C(C)(C)N=C1c1ccc(C#Cc2ccccc2)cn1 [Example 2, 3,5,5-Trimethyl-2-[5-(2-phenylethynyl)-2-pyridyl]imidazol-4-one]",38

# More lines, in order of falling Ki, values ahead:
row,Ki [nM],SMILES
1,80,"CN1C(=O)C(C)(C)N=C1c1ncc(C#Cc2cccc(Cl)c2)cn1 [Example 4, 2-[5-[2-(3-Chlorophenyl)ethynyl]-2-pyrimidyl]-3,5,5-trimethyl-imidazol-4-one]"
2,16,"CN1C(=O)C(C)(C)N=C1c1ccc(C#Cc2cccc(Cl)c2)cn1 [Example 3, 2-[5-[2-(3-Chlorophenyl)ethynyl]-2-pyridyl]-3,5,5-trimethyl-imidazol-4-one]"
